From patent US20240118287A1, “ANALYSIS PLATE FOR A MASS SPECTROMETRY ANALYSIS AND ASSOCIATED METHOD FOR CHARACTERIZING MICROORGANISMS BY MASS SPECTROMETRY” (priority 2021, published 2024)
In brackets after ≈: the same amount, converted by molar mass.

Tests used:
Type in all cases: cell-based
[1] = tested on: Ref 5 E. coli; experiment: MIC by microdilution in broth, reference strain Ref 5; parameters: key to Phenotype (R = resistant, S = sensitive): RA signifies resistance to amoxicillin; RC signifies resistance to ceftriaxone; RM signifies resistance to meropenem; RO resistance to oxacillin; SA signifies sensitive to amoxicillin; SC signifies sensitive to ceftriaxone; SM signifies sensitive to meropenem; SO sensitive to oxacillin; settings: CTX-M; for MIC: Escherichia coli, microdilution in broth, read-out: Minimum inhibitory concentration (MIC in μg/ml)
Protocol: (§1) The minimum inhibitory concentration (MIC in μg/ml) was determined by microdilution in broth, a technique very widely used by a person skilled in the art.

[2] = tested on: Ref 2 K. pneumoniae; experiment: MIC by microdilution in broth, reference strain Ref 2; parameters: key to Phenotype (R = resistant, S = sensitive): RA signifies resistance to amoxicillin; RC signifies resistance to ceftriaxone; RM signifies resistance to meropenem; RO resistance to oxacillin; SA signifies sensitive to amoxicillin; SC signifies sensitive to ceftriaxone; SM signifies sensitive to meropenem; SO sensitive to oxacillin; settings: for MIC: Klebsiella pneumoniae, OXA-48, microdilution in broth, read-out: Minimum inhibitory concentration (MIC in μg/ml); for Phenotype (R = resistant, S = sensitive): OXA-48
Protocol: as §1

[3] = tested on: Ref 4 E. coli; experiment: MIC by microdilution in broth, reference strain Ref 4; parameters: key to Phenotype (R = resistant, S = sensitive): RA signifies resistance to amoxicillin; RC signifies resistance to ceftriaxone; RM signifies resistance to meropenem; RO resistance to oxacillin; SA signifies sensitive to amoxicillin; SC signifies sensitive to ceftriaxone; SM signifies sensitive to meropenem; SO sensitive to oxacillin; settings: for MIC: Escherichia coli, microdilution in broth, read-out: Minimum inhibitory concentration (MIC in μg/ml)
Protocol: as §1

[4] = tested on: Ref 1 K. pneumoniae; experiment: MIC by microdilution in broth, reference strain Ref 1; parameters: key to Phenotype (R = resistant, S = sensitive): RA signifies resistance to amoxicillin; RC signifies resistance to ceftriaxone; RM signifies resistance to meropenem; RO resistance to oxacillin; SA signifies sensitive to amoxicillin; SC signifies sensitive to ceftriaxone; SM signifies sensitive to meropenem; SO sensitive to oxacillin; settings: for Phenotype (R = resistant, S = sensitive): KPC-2; for MIC: Klebsiella pneumoniae, KPC-2, microdilution in broth, read-out: Minimum inhibitory concentration (MIC in μg/ml)
Protocol: as §1

[5] = tested on: Ref 3 E. coli; experiment: MIC by microdilution in broth, reference strain Ref 3; parameters: key to Phenotype (R = resistant, S = sensitive): RA signifies resistance to amoxicillin; RC signifies resistance to ceftriaxone; RM signifies resistance to meropenem; RO resistance to oxacillin; SA signifies sensitive to amoxicillin; SC signifies sensitive to ceftriaxone; SM signifies sensitive to meropenem; SO sensitive to oxacillin; settings: for MIC: Escherichia coli, TEM-2, microdilution in broth, read-out: Minimum inhibitory concentration (MIC in μg/ml); for Phenotype (R = resistant, S = sensitive): TEM-2
Protocol: as §1

[6] = tested on: Isolate 8 (Klebsiella pneumoniae); experiment: Resistance characterization on functionalized analysis plate, MALDI-TOF (Example 4); settings: isolate 8 (K. pneumoniae); threshold identification probability ≥90% for at least 3 deposits out of 4; amoxicillin 2, ceftriaxone 24, meropenem 2 μg/ml
Protocol: (§2) This cassette comprises a gasket so as to be able to dispose the analysis plate on a sponge impregnated to saturation with Muller-Hinton culture medium. The sponge impregnated with a culture medium serves as a support, and it is made of porous material as described in the description.
(§3) A cover was placed on the cassette containing the analysis plate so as to be clipped on the cassette and close the device without touching the top of the drops.
(§4) The analysis cassettes thus prepared were incubated in the stove at 37° C. for 2, 3, 4 or 5 hours.
(§5) At the end of the incubation step, the analysis plates are placed on very absorbent, dry blotting paper, with an absorption capacity of 25 μL·cm^−2, so that the drops present on the analysis plate are aspirated by capillarity through the analysis zones made of porous material.
(§6) 1 μl of HCCA matrix, alpha-cyano 4-hydroxycinnamic acid (VITEK®MS-CHCA, bioMérieux reference 411071) was deposited on the analysis zones, comprising the microorganisms and the antimicrobial agent, and on the calibration zones comprising the calibrant.
(§7) The analysis plate is then dried and analyzed by VITEK®MS as described in example 1.
(§8) The isolates identified in example 1 were diluted to 0.5 McFarland (McF) in Muller-Hinton medium (bioMérieux reference AEB 110699), then diluted again to 1/100° for the Gram-negative bacteria and to 1/10° for the Gram-positive bacteria, always in Muller-Hinton medium.
(§9) Drops of 2 μl of the final dilutions were deposited on the analysis zones of the analysis plates according to the invention as described in example 2. As before, the dilutions of E. coli and of K. pneumoniae were analyzed on the targets with 16 deposits of amoxicillin, 16 deposits of ceftriaxone and 16 deposits of meropenem. The dilutions of Staphylococci were analyzed on the targets with 2 μg/ml of oxacillin.
(§10) The analysis was carried out according to the same procedure as in example 3 with an incubation of 4 h for all the microorganisms. Moreover, the results were interpreted as in example 3, i.e. with a threshold of identification probability greater than or equal to 90% for at least 3 deposits out of 4.

[7] = tested on: Isolate 1 (Escherichia coli); experiment: as above; settings: threshold identification probability ≥90% for at least 3 deposits out of 4, amoxicillin 2, ceftriaxone 24, meropenem 2 μg/ml
Protocol: as §2, §3, §4, §5, §6, §7, §8, §9, §10

[8] = tested on: Isolate 3 (Escherichia coli); experiment: as above; settings: threshold identification probability ≥90% for at least 3 deposits out of 4, amoxicillin 2, ceftriaxone 24, meropenem 2 μg/ml
Protocol: as §2, §3, §4, §5, §6, §7, §8, §9, §10

[9] = tested on: Isolate 7 (Klebsiella pneumoniae); experiment: as above; settings: isolate 7 (K. pneumoniae); threshold identification probability ≥90% for at least 3 deposits out of 4; amoxicillin 2, ceftriaxone 24, meropenem 2 μg/ml
Protocol: as §2, §3, §4, §5, §6, §7, §8, §9, §10

[10] = tested on: Isolate 5 (Escherichia coli); experiment: as above; settings: isolate 5 (E. coli); threshold identification probability ≥90% for at least 3 deposits out of 4; amoxicillin 2, ceftriaxone 24, meropenem 2 μg/ml
Protocol: as §2, §3, §4, §5, §6, §7, §8, §9, §10

[11] = tested on: Isolate 11 (Staphylococcus aureus); experiment: as above; settings: isolate 11 (S. aureus); oxacillin 2 μg/ml; threshold identification probability ≥90% for at least 3 deposits out of 4
Protocol: as §2, §3, §4, §5, §6, §7, §8, §9
(§11) When no sample deposit was provided on an analysis zone, this zone is covered with a Parafilm M plastic film (Bemis North America) before putting the analysis plate in the cassette. In this way, the analysis zone was not brought into contact with the culture medium contained in the sponge impregnated to saturation. The positions unused in the first analysis thus remained usable for a subsequent analysis.
as §10

[12] = tested on: Isolate 10 (Staphylococcus aureus); experiment: as above; settings: isolate 10 (S. aureus); oxacillin 2 μg/ml; threshold identification probability ≥90% for at least 3 deposits out of 4
Protocol: as §2, §3, §4, §5, §6, §7, §8, §9, §11, §10

[13] = tested on: Isolate 9 (Staphylococcus aureus); experiment: as above; settings: isolate 9 (S. aureus); oxacillin 2 μg/ml; threshold identification probability ≥90% for at least 3 deposits out of 4
Protocol: as §2, §3, §4, §5, §6, §7, §8, §9, §11, §10

[14] = tested on: Isolate 12 (Staphylococcus epidermidis); experiment: as above; settings: isolate 12 (S. epidermidis); oxacillin 2 μg/ml; threshold identification probability ≥90% for at least 3 deposits out of 4
Protocol: as §2, §3, §4, §5, §6, §7, §8, §9, §11, §10

[15] = tested on: Ref 7 S. aureus; experiment: MIC by microdilution in broth, reference strain Ref 7; parameters: key to Phenotype (R = resistant, S = sensitive): RA signifies resistance to amoxicillin; RC signifies resistance to ceftriaxone; RM signifies resistance to meropenem; RO resistance to oxacillin; SA signifies sensitive to amoxicillin; SC signifies sensitive to ceftriaxone; SM signifies sensitive to meropenem; SO sensitive to oxacillin; settings: mecA
Protocol: as §1

[16] = tested on: Isolate 11 (Staphylococcus aureus); experiment: MIC determination on analysis plate with oxacillin concentration range, MALDI-TOF (Example 5); settings: read-out: MIC by the method of the invention
Protocol: as §4, §5, §6, §7
(§12) The dilutions of Staphylococci of the reference strains and of the isolates were analyzed on the analysis plates according to the invention with 4 deposits of oxacillin at 0.125 μg/ml, 4 deposits of oxacillin at 0.25 μg/ml, 4 deposits of oxacillin at 0.5 μg/ml, 4 deposits of oxacillin at 1 μg/ml, 4 deposits of oxacillin at 2 μg/ml, 4 deposits of oxacillin at 4 μg/ml, 4 deposits of oxacillin at 8 μg/ml, 4 deposits of oxacillin at 16 μg/ml, 4 deposits of oxacillin at 32 μg/ml, 4 deposits of oxacillin at 64 μg/ml, 4 deposits of oxacillin at 128 μg/ml, 4 deposits of oxacillin at 256 μg/ml.

[17] = tested on: Reference strain No. 6 (S. aureus); experiment: as above
Protocol: as §4, §5, §6, §7, §12

[18] = tested on: Isolate 10 (Staphylococcus aureus); experiment: as above; settings: read-out: MIC by the method of the invention
Protocol: as §4, §5, §6, §7, §12

[19] = tested on: reference strain No. 7 (S. aureus); experiment: as above
Protocol: as §4, §5, §6, §7, §12

[20] = tested on: Isolate 9 (Staphylococcus aureus); experiment: as above; settings: read-out: MIC by the method of the invention
Protocol: as §4, §5, §6, §7, §12

[21] = tested on: Isolate 12 (Staphylococcus epidermidis); experiment: as above; settings: read-out: MIC by the method of the invention
Protocol: as §4, §5, §6, §7, §12

[22] = tested on: Ref 6 S. aureus; experiment: MIC by microdilution in broth, reference strain Ref 6; parameters: key to Phenotype (R = resistant, S = sensitive): RA signifies resistance to amoxicillin; RC signifies resistance to ceftriaxone; RM signifies resistance to meropenem; RO resistance to oxacillin; SA signifies sensitive to amoxicillin; SC signifies sensitive to ceftriaxone; SM signifies sensitive to meropenem; SO sensitive to oxacillin
Protocol: as §1

[23] = Staphylococcus aureus, microdilution in broth, read-out: Minimum inhibitory concentration (MIC in μg/ml)

SMILES	Phenotype (R = resistant, S = sensitive) [1]	MIC [1]	MIC [2]	Phenotype (R = resistant, S = sensitive) [2]	Phenotype (R = resistant, S = sensitive) [3]	MIC [3]	Phenotype (R = resistant, S = sensitive) [4]	MIC [4]	MIC [5]	Phenotype (R = resistant, S = sensitive) [5]	Isolate characterized as resistant or sensitive to the antibiotic [6]	Isolate characterized as resistant or sensitive to the antibiotic [7]	Isolate characterized as resistant or sensitive to the antibiotic [8]	Isolate characterized as resistant or sensitive to the antibiotic [9]	Isolate characterized as resistant or sensitive to the antibiotic [10]	other results
CC1(C)S[C@@H]2[C@H](NC(=O)[C@H](N)c3ccc(O)cc3)C(=O)N2[C@H]1C(=O)O [Amoxicillin, amoxicillin]	RA	> 128 µg/mL	64 µg/mL (≈ 175 µM)	RA	SA	1 µg/mL (≈ 2.74 µM)	RA	> 128 µg/mL	32 µg/mL (≈ 87.6 µM)	RA	resistant	resistant	resistant	resistant	resistant	–
CO/N=C(\C(=O)N[C@@H]1C(=O)N2C(C(=O)O)=C(CSc3nc(=O)c(=O)[nH]n3C)CS[C@H]12)c1csc(N)n1 [Ceftriaxone, ceftriaxone]	RC	8 µg/mL (≈ 14.4 µM)	32 µg/mL (≈ 57.7 µM)	RC	SC	0.25 µg/mL (≈ 0.451 µM)	RC	64 µg/mL (≈ 115 µM)	16 µg/mL (≈ 28.9 µM)	RC	resistant	sensitive	resistant	sensitive	sensitive	–
C[C@@H](O)[C@H]1C(=O)N2C(C(=O)O)=C(S[C@@H]3CN[C@H](C(=O)N(C)C)C3)[C@H](C)[C@H]12 [Meropenem, meropenem]	SM	0.5 µg/mL (≈ 1.3 µM)	0.25 µg/mL (≈ 0.652 µM)	SM	SM	0.06 µg/mL (≈ 0.156 µM)	RM	64 µg/mL (≈ 167 µM)	0.5 µg/mL (≈ 1.3 µM)	SM	sensitive	sensitive	sensitive	sensitive	sensitive	–
Cc1onc(-c2ccccc2)c1C(=O)N[C@@H]1C(=O)N2[C@@H]1SC(C)(C)[C@@H]2C(=O)O [Oxacillin, oxacillin]	–	–	–	–	–	–	–	–	–	–	–	–	–	–	–	Isolate characterized as resistant or sensitive to the antibiotic [11]: sensitive; Isolate characterized as resistant or sensitive to the antibiotic [12]: sensitive; Isolate characterized as resistant or sensitive to the antibiotic [13]: resistant; Isolate characterized as resistant or sensitive to the antibiotic [14]: sensitive; MIC [15, 23]: 128 µg/mL (≈ 319 µM); Phenotype (R = resistant, S = sensitive) [15]: RO; MIC [16]: 0.5 µg/mL (≈ 1.25 µM); MIC ([17]; Staphylococcus aureus, equals Table 2 MIC, read-out: MIC, lowest growth inhibiting concentration observed by the method of the invention): 0.25 µg/mL (≈ 0.623 µM); Identification as S. aureus ([17]; higher concentrations of oxacillin (above 0.25 μg/ml)): not identified; Identification probability as S. aureus ([17]; oxacillin 0.125 μg/ml, in 3 deposits out of 4): greater than 99.9%; Identification probability as S. aureus ([17]; oxacillin 0.25 μg/ml, for 1 deposit out of 4): greater than 99.9%; MIC [18]: 0.25 µg/mL (≈ 0.623 µM); MIC ([19]; Staphylococcus aureus, compliant with Table 2, read-out: MIC by the method of the invention): 128 µg/mL (≈ 319 µM); Identification probability as S. aureus ([19]; oxacillin 0.125 at 64 μg/ml): 99.9%; Identification as S. aureus ([19]; oxacillin 128 and 256 μg/ml): not identified; MIC [20]: 16 µg/mL (≈ 39.9 µM); MIC [21]: 0.125 µg/mL (≈ 0.311 µM); Phenotype (R = resistant, S = sensitive) [22]: SO; MIC [22, 23]: 0.25 µg/mL (≈ 0.623 µM)
